Assay results as given in PubChem BioAssay AID1195 (EPA DSSTox, 2008).

Tested on: human maximum recommended daily dose, FDA database
Test: DSSTox (FDAMDD) FDA Maximum (Recommended) Daily Dose Database
Details: hits give low values
In short: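 MRDD values come from clinical trials with daily oral dosing, usually for 3–12 months, for the average adult, in mg/day converted to mg/kg-bw/day assuming 60 kg. Antineoplastic mg/m2 doses are divided by 37. Activity score maps log10(1/MRDD mmol) onto 1–100.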

[1] = TherapeuticCategory: antibacterial
[2] = TherapeuticCategory: anticonvulsant
[3] = TherapeuticCategory: antineoplastic

CCN[C@H]1C[C@H](C)S(=O)(=O)c2sc(S(N)(=O)=O)cc21
maximum recommended daily dose (mmol/kg-bw/day) (TherapeuticCategory: antiglaucomal agent, carbonic anhydrase inhibitor): 0.00308

CN1[C@@H]2CC[C@H]1CC(OC(=O)C(CO)c1ccccc1)C2 (stereo not given in full)
maximum recommended daily dose (mmol/kg-bw/day) (TherapeuticCategory: anticholinergic, mydriatic, antispasmodic): 4.6e-06

CCC(=O)OC(OP(=O)(CCCCc1ccccc1)CC(=O)N1C[C@H](C2CCCCC2)C[C@H]1C(=O)O)C(C)C (stereo not given in full)
maximum recommended daily dose (mmol/kg-bw/day) (TherapeuticCategory: antihypertensive): 0.00236

CO[C@H]1C[C@H](O[C@H]2[C@H](C)[C@@H](O[C@@H]3O[C@H](C)C[C@H](N(C)C)[C@H]3O)[C@@H](C)C[C@]3(CO3)C(=O)[C@H](C)[C@@H](O)[C@@H](C)[C@@H](C)OC(=O)[C@@H]2C)O[C@@H](C)[C@@H]1O
maximum recommended daily dose (mmol/kg-bw/day) [1]: 0.0484

Cc1cc2nc3c(=O)[nH]c(=O)nc-3n(C[C@H](O)[C@H](O)[C@H](O)COP(=O)(O)O)c2cc1C
maximum recommended daily dose (mmol/kg-bw/day) (TherapeuticCategory: enzyme cofactor vitamin): 0.0011

CCC1(c2ccccc2)NC(=O)N(C)C1=O (stereo not given)
maximum recommended daily dose (mmol/kg-bw/day) [2]: 0.0458

COc1ccc(CCN2CCC(Nc3nc4ccccc4n3Cc3ccc(F)cc3)CC2)cc1
maximum recommended daily dose (mmol/kg-bw/day) (TherapeuticCategory: antiallergic, antiarrhythmic): 0.000364

CC(=O)Oc1ccccc1C(=O)O
maximum recommended daily dose (mmol/kg-bw/day) (TherapeuticCategory: analgesic, antipyretic, anti inflammatory): 0.37

O=S(O)CNc1ccc(S(=O)(=O)c2ccc(NCS(=O)O)cc2)cc1
maximum recommended daily dose (mmol/kg-bw/day) [1]: 0.0111

NC(Cc1ccccc1)C(=O)O (stereo not given)
maximum recommended daily dose (mmol/kg-bw/day) [1]: 0.605

Nc1c(Br)cc(Br)cc1CNC1CCC(O)CC1 (stereo not given)
maximum recommended daily dose (mmol/kg-bw/day) (TherapeuticCategory: expectorant): 0.00529

CC(=O)NCc1c(I)c(NC(C)=O)c(I)c(C(=O)O)c1I
maximum recommended daily dose (mmol/kg-bw/day) (TherapeuticCategory: diagnostic aid): 0.159

CC1=C(C/C=C(\C)CCC[C@H](C)CCC[C@H](C)CCCC(C)C)C(=O)c2ccccc2C1=O
maximum recommended daily dose (mmol/kg-bw/day) (TherapeuticCategory: prothrombogenic vitamin): 0.000925

COc1cccc([C@@]2(O)CCCC[C@@H]2CN(C)C)c1
maximum recommended daily dose (mmol/kg-bw/day) (TherapeuticCategory: analgesic): 0.0253

CC(=O)[C@]1(O)Cc2c(O)c3c(c(O)c2[C@@H](O[C@H]2C[C@H](N)[C@H](O)[C@H](C)O2)C1)C(=O)c1c(O)cccc1C3=O
maximum recommended daily dose (mmol/kg-bw/day) [3]: 0.00132

CC(C)N=C(N)/N=C(\N)Nc1ccc(Cl)c(Cl)c1
maximum recommended daily dose (mmol/kg-bw/day) (TherapeuticCategory: antimalarial): 0.00116

CC(S)C(=O)NCC(=O)O (stereo not given)
maximum recommended daily dose (mmol/kg-bw/day) (TherapeuticCategory: hepatoprotectant, mucolytic, antidote to heavy metal poisoning): 0.204

CC[C@@]1(O)C[C@H](O[C@H]2C[C@H](N(C)C)[C@H](O[C@H]3C[C@H](O)[C@H](O[C@H]4CCC(=O)[C@H](C)O4)[C@H](C)O3)[C@H](C)O2)c2c(cc3c(c2O)C(=O)c2c(O)cccc2C3=O)[C@H]1C(=O)OC
maximum recommended daily dose (mmol/kg-bw/day) [3]: 0.00333

CCNNC(=O)[C@@H]1[C@H](c2cc(OC)c(OC)c(OC)c2)c2cc3c(cc2[C@H](O)[C@H]1CO)OCO3
maximum recommended daily dose (mmol/kg-bw/day) [3]: 0.00702

CCCCCCCC/C=C\CCCCCCCC(=O)O
maximum recommended daily dose (mmol/kg-bw/day) (TherapeuticCategory: sclerosing agent): 0.242

NS(=O)(=O)c1cc2c(cc1Cl)NC=NS2(=O)=O
maximum recommended daily dose (mmol/kg-bw/day) (TherapeuticCategory: diuretic): 0.113

C[C@]12CC[C@@H]3c4ccc(OC(=O)c5ccccc5)cc4CC[C@H]3[C@@H]1CC[C@@H]2O
maximum recommended daily dose (mmol/kg-bw/day) (TherapeuticCategory: estrogen): 0.00133

C#CC1(OC(N)=O)CCCCC1
maximum recommended daily dose (mmol/kg-bw/day) (TherapeuticCategory: sedative, hypnotic): 0.0999

Cc1ccsc1C(=CCCN1CCC[C@@H](C(=O)O)C1)c1sccc1C
maximum recommended daily dose (mmol/kg-bw/day) [2]: 0.00285

O=c1oc2ccccc2c(O)c1Cc1c(O)c2ccccc2oc1=O
maximum recommended daily dose (mmol/kg-bw/day) (TherapeuticCategory: anticoagulant): 0.0149

O=C1NCC2(CCN(CCc3ccccc3)CC2)O1
maximum recommended daily dose (mmol/kg-bw/day) (TherapeuticCategory: bronchodilator, alpha adrenergic blocker): 0.0307

C[C@H](CCC(=O)O)[C@H]1CC[C@H]2[C@@H]3C(=O)C[C@@H]4CC(=O)CC[C@]4(C)[C@H]3CC(=O)[C@]12C
maximum recommended daily dose (mmol/kg-bw/day) (TherapeuticCategory: choleretic): 0.0932

CC[C@@H](CO)NC(=O)[C@@H]1C=C2c3cccc4[nH]cc(c34)C[C@H]2N(C)C1
maximum recommended daily dose (mmol/kg-bw/day) (TherapeuticCategory: oxytocic): 3.92e-05

CN1CCC(CN2c3ccccc3Sc3ccccc32)C1 (stereo not given)
maximum recommended daily dose (mmol/kg-bw/day) (TherapeuticCategory: antipruritic): 0.00169

OCCN(CCO)CCO
maximum recommended daily dose (mmol/kg-bw/day) (TherapeuticCategory: analgesic): 0.067
